Read-outs that look alike come from different tables or passages of the source.
How the values were obtained:
Format in all cases: in vivo
rice (Oryza sativa) = assay: Test C flooded paddy test plant response; settings: Flood, 250 g ai/ha, scale of 0 to 100 where 0 is no effect and 100 is complete control, 13 to 15 days
How it was run: (§1)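 2-leaf plants; flood 3 cm, cpd into paddy water; greenhouse 13–15 d; visual score vs untreated, 0 = no effect, 100 = complete control; dash = no result.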

[1] = system: ducksalad (Heteranthera limosa); assay: Test C flooded paddy test plant response; settings: Flood, 250 g ai/ha, scale of 0 to 100 where 0 is no effect and 100 is complete control, 13 to 15 days
How it was run: as §1

[2] = system: barnyardgrass (Echinochloa crus-galli); assay: Test C flooded paddy test plant response; settings: Flood, 250 g ai/ha, scale of 0 to 100 where 0 is no effect and 100 is complete control, 13 to 15 days
How it was run: as §1

[3] = system: small-flower umbrella sedge (Cyperus difformis); assay: Test C flooded paddy test plant response; settings: Flood, 250 g ai/ha, scale of 0 to 100 where 0 is no effect and 100 is complete control, 13 to 15 days
How it was run: as §1

[4] = system: blackgrass (Alopecurus myosuroides); assay: Test B postemergence plant response
How it was run: (§2)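 Plants grown in pots of loam soil–sand blend were sprayed postemergence with formulated test chemicals at 2 to 10 cm height, one- to two-leaf stage. After about 10 days in a greenhouse, injury was visually rated against untreated controls on a 0 to 100 scale (0 no effect, 100 complete control).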

[5] = system: galium (catchweed bedstraw, Galium aparine); assay: Test B postemergence plant response
How it was run: as §2

[6] = system: wheat (Triticum aestivum); assay: Test B pre-/postemergence plant response
How it was run: (§3)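 Visual injury rating, 0 (no effect) to 100 (complete control), vs untreated controls after ~10 d greenhouse. Pre: directed soil spray after planting in loam/sand. Post: plants 2–10 cm, 1–2 leaf stage. Compound in non-phytotoxic solvent plus surfactant.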

[7] = system: giant foxtail (Setaria faberii); assay: Test B pre-/postemergence plant response
How it was run: as §3

[8] = system: Italian ryegrass (Lolium multiflorum); assay: Test B pre-/postemergence plant response
How it was run: as §3

[9] = system: pigweed (Amaranthus retroflexus); assay: Test B pre-/postemergence plant response
How it was run: as §3

[10] = system: barnyardgrass (Echinochloa crus-galli); assay: Test B pre-/postemergence plant response
How it was run: as §3

[11] = system: ragweed (common ragweed, Ambrosia elatior); assay: Test B pre-/postemergence plant response
How it was run: as §3

corn (Zea mays) = assay: Test B pre-/postemergence plant response
How it was run: as §3

kochia (Kochia scoparia) = assay: Test B pre-/postemergence plant response
How it was run: as §3

[12] = 125 g ai/ha, postemergence, 0 to 100 scale, 0 no effect, 100 complete control
[13] = Postemergence, 31 g ai/ha, 0 to 100 scale (0 no effect, 100 complete control)
[14] = 31 g ai/ha, Preemergence, 0 to 100 scale where 0 is no effect and 100 is complete control
[15] = Preemergence, 125 g ai/ha, 0 to 100 scale (0 no effect, 100 complete control)
[16] = Postemergence, 500 g ai/ha, 0 to 100 scale (0 no effect, 100 complete control)
[17] = Preemergence, 500 g ai/ha, 0 to 100 scale where 0 is no effect and 100 is complete control

## Clc1cnc(Oc2ccccc2-c2ccno2)nc1 [Compound 154]
Rice (Oryza sativa)
  Rice plant response rating: 0
[1]
  Ducksalad plant response rating: 0
[2]
  Barnyardgrass plant response rating: 0
[3]
  Sedge, Umbrella plant response rating: 0
[4]; [12]
  Plant response rating, Blackgrass: 0
[4]; [13]
  Plant response rating, Blackgrass: 0
[5]; [12]
  Plant response rating, Galium: 0
[5]; [13]
  Plant response rating, Galium: 0
[6]; [12]
  Plant response rating, Wheat: 0
[6]; [13]
  Plant response rating, Wheat: 0
[7]; [14]
  Plant response rating, Foxtail, Giant: 0
[7]; [12]
  Plant response rating, Foxtail, Giant: 0
[7]; [13]
  Plant response rating, Foxtail, Giant: 0
[7]; [15]
  Foxtail, Giant plant response rating: 0
[8]; [14]
  Plant response rating, Ryegrass, Italian: 0
[8]; [12]
  Plant response rating, Ryegrass, Italian: 0
[8]; [13]
  Plant response rating, Ryegrass, Italian: 0
[8]; [15]
  Ryegrass, Italian plant response rating: 0
[9]; [14]
  Plant response rating, Pigweed: 0
[9]; [12]
  Plant response rating, Pigweed: 0
[9]; [13]
  Plant response rating, Pigweed: 0
[9]; [15]
  Pigweed plant response rating: 0
[10]; [14]
  Plant response rating, Barnyardgrass: 0
[10]; [12]
  Plant response rating, Barnyardgrass: 0
[10]; [13]
  Plant response rating, Barnyardgrass: 0
[10]; [15]
  Barnyardgrass plant response rating: 0
[11]; [14]
  Plant response rating, Ragweed: 0
[11]; [12]
  Plant response rating, Ragweed: 0
[11]; [13]
  Plant response rating, Ragweed: 0
[11]; [15]
  Ragweed plant response rating: 0
Corn (Zea mays); [12]
  Plant response rating, Corn: 0
Corn (Zea mays); [13]
  Plant response rating, Corn: 0
Kochia (Kochia scoparia); [14]
  Plant response rating, Kochia: 0
Kochia (Kochia scoparia); [12]
  Plant response rating, Kochia: 0
Kochia (Kochia scoparia); [13]
  Plant response rating, Kochia: 0
Kochia (Kochia scoparia); [15]
  Kochia plant response rating: 0

## Brc1cnc(Oc2ccccc2-c2ccno2)nc1 [Compound 155]
Rice (Oryza sativa)
  Rice plant response rating: 0
[1]
  Ducksalad plant response rating: 0
[2]
  Barnyardgrass plant response rating: 0
[3]
  Sedge, Umbrella plant response rating: 0
[4]; [12]
  Plant response rating, Blackgrass: 0
[4]; [13]
  Plant response rating, Blackgrass: 0
[5]; [12]
  Plant response rating, Galium: 0
[5]; [13]
  Plant response rating, Galium: 0
[6]; [12]
  Plant response rating, Wheat: 0
[6]; [13]
  Plant response rating, Wheat: 0
[7]; [14]
  Plant response rating, Foxtail, Giant: 0
[7]; [12]
  Plant response rating, Foxtail, Giant: 0
[7]; [13]
  Plant response rating, Foxtail, Giant: 0
[7]; [15]
  Foxtail, Giant plant response rating: 0
[8]; [14]
  Plant response rating, Ryegrass, Italian: 0
[8]; [12]
  Plant response rating, Ryegrass, Italian: 0
[8]; [13]
  Plant response rating, Ryegrass, Italian: 0
[8]; [15]
  Ryegrass, Italian plant response rating: 0
[9]; [14]
  Plant response rating, Pigweed: 0
[9]; [12]
  Plant response rating, Pigweed: 0
[9]; [13]
  Plant response rating, Pigweed: 0
[9]; [15]
  Pigweed plant response rating: 0
[10]; [14]
  Plant response rating, Barnyardgrass: 0
[10]; [12]
  Plant response rating, Barnyardgrass: 0
[10]; [13]
  Plant response rating, Barnyardgrass: 0
[10]; [15]
  Barnyardgrass plant response rating: 0
[11]; [14]
  Plant response rating, Ragweed: 0
[11]; [12]
  Plant response rating, Ragweed: 0
[11]; [13]
  Plant response rating, Ragweed: 0
[11]; [15]
  Ragweed plant response rating: 0
Corn (Zea mays); [12]
  Plant response rating, Corn: 0
Corn (Zea mays); [13]
  Plant response rating, Corn: 0
Kochia (Kochia scoparia); [14]
  Plant response rating, Kochia: 0
Kochia (Kochia scoparia); [12]
  Plant response rating, Kochia: 0
Kochia (Kochia scoparia); [13]
  Plant response rating, Kochia: 0
Kochia (Kochia scoparia); [15]
  Kochia plant response rating: 0

## FC(F)(F)c1ccnc(-c2c(Cl)cccc2Oc2ncc(Cl)cn2)c1 [Compound 159]
Rice (Oryza sativa)
  Rice plant response rating: 0
[1]
  Ducksalad plant response rating: 0
[2]
  Barnyardgrass plant response rating: 0
[3]
  Sedge, Umbrella plant response rating: 0
[4]; [12]
  Plant response rating, Blackgrass: 0
[4]; [16]
  Plant response rating, Blackgrass: 30
[5]; [12]
  Plant response rating, Galium: 70
[5]; [16]
  Plant response rating, Galium: 100
[6]; [12]
  Plant response rating, Wheat: 20
[6]; [16]
  Plant response rating, Wheat: 20
[7]; [12]
  Plant response rating, Foxtail, Giant: 0
[7]; [16]
  Plant response rating, Foxtail, Giant: 70
[7]; [15]
  Foxtail, Giant plant response rating: 20
[7]; [17]
  Plant response rating, Foxtail, Giant: 90
[8]; [12]
  Plant response rating, Ryegrass, Italian: 0
[8]; [16]
  Plant response rating, Ryegrass, Italian: 0
[8]; [15]
  Ryegrass, Italian plant response rating: 0
[8]; [17]
  Plant response rating, Ryegrass, Italian: 0
[9]; [12]
  Plant response rating, Pigweed: 90
[9]; [16]
  Plant response rating, Pigweed: 100
[9]; [15]
  Pigweed plant response rating: 40
[9]; [17]
  Plant response rating, Pigweed: 100
[10]; [12]
  Plant response rating, Barnyardgrass: 0
[10]; [16]
  Plant response rating, Barnyardgrass: 20
[10]; [15]
  Barnyardgrass plant response rating: 0
[10]; [17]
  Plant response rating, Barnyardgrass: 60
[11]; [12]
  Plant response rating, Ragweed: 0
[11]; [16]
  Plant response rating, Ragweed: 0
[11]; [15]
  Ragweed plant response rating: 0
[11]; [17]
  Plant response rating, Ragweed: 0
Corn (Zea mays); [12]
  Plant response rating, Corn: 20
Corn (Zea mays); [16]
  Plant response rating, Corn: 30
Kochia (Kochia scoparia); [12]
  Plant response rating, Kochia: 20
Kochia (Kochia scoparia); [16]
  Plant response rating, Kochia: 80
Kochia (Kochia scoparia); [15]
  Kochia plant response rating: 0
Kochia (Kochia scoparia); [17]
  Plant response rating, Kochia: 30

## FC(F)(F)c1ccc(-c2c(Cl)cccc2Oc2ncc(Cl)cn2)nc1 [Compound 160, 5-chloro-2-[2-[5-(trifluoromethyl)-2-pyridinyl]-3-chlorophenoxy]pyrimidine]
Rice (Oryza sativa); Oryza sativa, read-out: Rice plant response rating
  plant injury at 250 g/ha: 0%
[1]; Heteranthera limosa, read-out: Ducksalad plant response rating
  pest or weed control at 250 g/ha: 0%
[2]; Echinochloa crus-galli, read-out: Barnyardgrass plant response rating
  pest or weed control at 250 g/ha: 0%
[3]; Cyperus difformis, read-out: Sedge, Umbrella plant response rating
  pest or weed control at 250 g/ha: 0%
[4]; [12]
  Plant response rating, Blackgrass: 50
[4]; [16]
  Plant response rating, Blackgrass: 90
[5]; [12]
  Plant response rating, Galium: 70
[5]; [16]
  Plant response rating, Galium: 100
[6]; Triticum aestivum, post-emergence, 240 h, 125 g ai/ha, postemergence, 0 to 100 scale, 0 no effect, 100 complete control, read-out: Plant response rating, Wheat
  plant injury at 125 g/ha: 20%
[6]; Triticum aestivum, post-emergence, 240 h, Postemergence, 500 g ai/ha, 0 to 100 scale (0 no effect, 100 complete control), read-out: Plant response rating, Wheat
  plant injury at 500 g/ha: 80%
[7]; [15]
  Foxtail, Giant plant response rating: 50
[7]; Setaria faberi, post-emergence, 240 h, 125 g ai/ha, postemergence, 0 to 100 scale, 0 no effect, 100 complete control, read-out: Plant response rating, Foxtail, Giant
  pest or weed control at 125 g/ha: 30%
[7]; Setaria faberi, post-emergence, 240 h, Postemergence, 500 g ai/ha, 0 to 100 scale (0 no effect, 100 complete control), read-out: Plant response rating, Foxtail, Giant
  pest or weed control at 500 g/ha: 100%
[7]; Setaria faberi, pre-emergence, 240 h, Preemergence, 500 g ai/ha, 0 to 100 scale where 0 is no effect and 100 is complete control, read-out: Plant response rating, Foxtail, Giant
  pest or weed control at 500 g/ha: 100%
[8]; [12]
  Plant response rating, Ryegrass, Italian: 0
[8]; [16]
  Plant response rating, Ryegrass, Italian: 90
[8]; [15]
  Ryegrass, Italian plant response rating: 0
[8]; [17]
  Plant response rating, Ryegrass, Italian: 0
[9]; Amaranthus retroflexus, post-emergence, 240 h, 125 g ai/ha, postemergence, 0 to 100 scale, 0 no effect, 100 complete control, read-out: Plant response rating, Pigweed
  pest or weed control at 125 g/ha: 90%
[9]; Amaranthus retroflexus, post-emergence, 240 h, Postemergence, 500 g ai/ha, 0 to 100 scale (0 no effect, 100 complete control), read-out: Plant response rating, Pigweed
  pest or weed control at 500 g/ha: 100%
[9]; Amaranthus retroflexus, pre-emergence, 240 h, Preemergence, 500 g ai/ha, 0 to 100 scale where 0 is no effect and 100 is complete control, read-out: Plant response rating, Pigweed
  pest or weed control at 500 g/ha: 100%
[9]; [15]
  Pigweed plant response rating: 90
[10]; Echinochloa crus-galli, post-emergence, 240 h, 125 g ai/ha, postemergence, 0 to 100 scale, 0 no effect, 100 complete control, read-out: Plant response rating, Barnyardgrass
  pest or weed control at 125 g/ha: 0%
[10]; Echinochloa crus-galli, post-emergence, 240 h, Postemergence, 500 g ai/ha, 0 to 100 scale (0 no effect, 100 complete control), read-out: Plant response rating, Barnyardgrass
  pest or weed control at 500 g/ha: 80%
[10]; Echinochloa crus-galli, pre-emergence, 240 h, Preemergence, 500 g ai/ha, 0 to 100 scale where 0 is no effect and 100 is complete control, read-out: Plant response rating, Barnyardgrass
  pest or weed control at 500 g/ha: 80%
[10]; [15]
  Barnyardgrass plant response rating: 0
[11]; [12]
  Plant response rating, Ragweed: 0
[11]; [16]
  Plant response rating, Ragweed: 30
[11]; [15]
  Ragweed plant response rating: 0
[11]; [17]
  Plant response rating, Ragweed: 0
Corn (Zea mays); Zea mays, post-emergence, 240 h, 125 g ai/ha, postemergence, 0 to 100 scale, 0 no effect, 100 complete control
  Corn plant response rating (crop injury, 0 = no effect, 100 = complete kill) at 125 g/ha: 30%
Corn (Zea mays); Zea mays, post-emergence, 240 h, Postemergence, 500 g ai/ha, 0 to 100 scale (0 no effect, 100 complete control)
  Corn plant response rating (crop injury, 0 = no effect, 100 = complete kill) at 500 g/ha: 90%
Kochia (Kochia scoparia); [12]
  Plant response rating, Kochia: 40
Kochia (Kochia scoparia); [16]
  Plant response rating, Kochia: 90
Kochia (Kochia scoparia); [15]
  Kochia plant response rating: 30
Kochia (Kochia scoparia); [17]
  Plant response rating, Kochia: 90
